This note sets out measurements from publication PMC10141604, “Small-Molecule Inhibition of Androgen Receptor Dimerization as a Strategy against Prostate Cancer” (ACS Central Science, 2023).

One assay concerns the target T1, AR LBD dimer (Homo sapiens, UniProt P10275).
T1 construct: The AR LBD (663-919) was fused into the pET50b vector with Nus-tag; Nus-tag (cleaved yes); made in house; host or cells: E. coli BL21 (DE3)
Description: SAXS and CXMS analysis of AR LBD dimerization. Format: biochemical. On the procedure: 30 μM AR LBD protein was crosslinked with a 50× molar excess of freshly prepared BS3 (#21580, ThermoFisher) in 20 mM HEPES (pH 7.4), 5% Glycerol, 150 mM NaCl, 10 μM DHT, with or without 90 μM M17-B15. The cross-linking reaction was conducted at room temperature with gentle mixing, and was quenched after 45 min with the addition of Tris-HCl buffer (pH 8.0) to a concentration of 20 mM.
Cross-linked proteins were precipitated with 6-fold volume of pre-cooled acetone for 2 h at -20 °C. Centrifuge at 14,000 rpm for 20 min, and discard the supernatant. Then added 20 μL 100 mM Tris-HCl buffer (pH 8.5), 8 M urea, and ultrasound for 20 min to assist protein dissolution. 5 mM reducing agent TCEP, 10 mM alkylating agent iodoacetamide, 1 mM CaCl2 and 20 mM methylamine were added in tandem. And 3-fold volume of 100 mM Tris pH 8.5 was added to dilute urea to 2 M. Then added trypsin (the mass ratio of enzyme to protein is 1:50) and digested the protein samples at 37 °C for 14 h. Finally, quenched the digestion reaction by adding formic acid with a final […]
An Easy nLC 1000 system (ThermoFisher) coupled to a Velos Pro Orbitrap Elite mass spectrometer (ThermoFisher) was used for mass spectrometry analysis. The resulting peptide mixture was vacuum-centrifuged to dryness, and reconstituted in 0.1% formic acid. […]
respectively. […] The scattering profile for matching buffer was also recorded and was subtracted. […]

The target of another assay is FL-AR^F876L/T877A (Homo sapiens, UniProt P10275, F877L/T878A). Description: Dual-luciferase reporter assay for FL-AR F876L/T877A in PC3 cells. For orientation: A reporter such as luciferase makes a cellular process visible.
In the next assay the target is T2, AR LBD (Homo sapiens, UniProt P10275).
T2 construct: The AR LBD (663-919) was fused into the pET50b vector with Nus-tag; Nus-tag (cleaved yes); made in house; host or cells: E. coli BL21 (DE3)
Nature of the assay: Biolayer interferometry (BLI) binding to purified AR LBD. How it is done:
in 4 L LB media at 37°C until OD600 arrived to 0.6, then supplemented with 0.5 mM Isopropyl β-D-1-Thiogalactopyranoside (IPTG) and 20 μM DHT. After incubated at 16 °C for 16-18 h, the cells were collected by centrifugation at 3,500 × g for 0.5 h. The cell mass was resuspended in Lysis buffer (20 mM Tris -HCL pH 7.4, 5 mM imidazole,150 mM NaCl, 10% Glycerol, 2 mM Dithiothreitol (DTT) and 10 μM DHT) and lysed at 800 bar for at least 5 cycles. The lysis was centrifugated at 14,000 × g for 0.5 h, and the supernatant was loaded to HisTrap TM […] HP column (#17524802, GE Healthcare), followed by washing and eluting steps using 65 mM imidazole and 300 mM imidazole, respectively.
The elution from Ni-NTA were cut by HRV-3C protease, and further purified by […]
The purified AR LBD protein was biotinylated using EZ-Link™ Sulfo-NHS-LC-LC-Biotin (#A35358, ThermoFisher) in 500 μL phosphate -buffered saline with 0.02% Tween -20 (v/v, PBST) buffer for 2 h at 4 °C. […] The kinetics of the AR LBD and M17-B15 association was evaluated by soaking the AR LBD-loaded sensors into wells containing various concentrations of M17 -B15 (6.25, 12.5, 25, 50, 100 μM) for 60 s, followed by dissociation of M17 -B15 by soaking the sensors in the PBST buffer for 60 s. The kinetics values were calculated by fitting the kinetic data based on a 1:1 binding model using Forté Bio data analysis (v.11.1) software .
In general terms: BLI is a label-free optical method that tracks binding on a fibre tip over time.

T2 sequence (P10275 663-919): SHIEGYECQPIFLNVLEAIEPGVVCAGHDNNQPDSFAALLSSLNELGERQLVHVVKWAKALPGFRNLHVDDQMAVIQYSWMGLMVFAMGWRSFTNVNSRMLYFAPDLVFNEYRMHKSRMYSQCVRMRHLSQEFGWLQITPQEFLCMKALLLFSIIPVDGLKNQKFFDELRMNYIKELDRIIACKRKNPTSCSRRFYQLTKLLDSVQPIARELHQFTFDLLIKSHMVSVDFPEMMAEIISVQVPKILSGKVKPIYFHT
T1 sequence (P10275 663-919): as above
Sequence of FL-AR^F876L/T877A (P10275 whole entry F877L/T878A, the tested form may be a part): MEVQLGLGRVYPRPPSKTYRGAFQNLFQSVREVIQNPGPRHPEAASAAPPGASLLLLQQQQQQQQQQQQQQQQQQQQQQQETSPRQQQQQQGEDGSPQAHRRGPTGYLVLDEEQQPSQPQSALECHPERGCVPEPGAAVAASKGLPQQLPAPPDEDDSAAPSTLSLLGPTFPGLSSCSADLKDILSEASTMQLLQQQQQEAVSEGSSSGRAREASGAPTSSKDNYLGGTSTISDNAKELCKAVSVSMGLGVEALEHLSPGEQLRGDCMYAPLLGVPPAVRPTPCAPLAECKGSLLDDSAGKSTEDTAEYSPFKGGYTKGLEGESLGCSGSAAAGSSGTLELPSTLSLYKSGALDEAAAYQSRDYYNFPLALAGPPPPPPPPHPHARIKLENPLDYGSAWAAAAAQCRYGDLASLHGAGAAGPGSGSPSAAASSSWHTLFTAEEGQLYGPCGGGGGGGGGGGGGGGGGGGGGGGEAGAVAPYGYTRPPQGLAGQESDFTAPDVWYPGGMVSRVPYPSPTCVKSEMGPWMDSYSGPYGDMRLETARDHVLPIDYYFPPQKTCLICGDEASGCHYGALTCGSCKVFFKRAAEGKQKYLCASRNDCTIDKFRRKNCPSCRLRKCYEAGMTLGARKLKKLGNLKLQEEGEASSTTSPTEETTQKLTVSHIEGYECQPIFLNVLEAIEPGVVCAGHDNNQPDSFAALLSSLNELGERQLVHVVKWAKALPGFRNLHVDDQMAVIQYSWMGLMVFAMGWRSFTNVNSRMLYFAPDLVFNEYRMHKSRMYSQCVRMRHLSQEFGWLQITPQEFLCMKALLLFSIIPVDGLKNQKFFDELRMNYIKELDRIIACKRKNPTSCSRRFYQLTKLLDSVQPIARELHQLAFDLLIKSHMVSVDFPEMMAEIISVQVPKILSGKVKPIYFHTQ
Description for FL-AR^F876L/T877A: Luciferase Reporter Assays for FL -ARF876L and FL-ARF876L/T877A
constructed on the basis of the human full length wild type AR plasmid pCMV -hAR
transfected with 70 ng/well of FL -AR plasmid together with 24 ng of ARR2PB -Luc, and 5 ng of Renilla. After 1 day incubation at 37 °C , the antagonistic models were employed
After another 24 h incubation, the luciferase activities were determined by the Dual -Glo Luciferase system (#E1910, Promega) according to the

With `CC(=O)Cc1nsc(NC(=O)c2cc(-c3cccc(C(F)(F)F)c3)oc2C)n1` [Compound M17-B15], at AR LBD dimer (upon addition of compound), the “Dmax value of the AR LBD (SAXS)” value is recorded as “markedly reduced”. Further, the “proportion of the AR LBD dimer” value at AR LBD dimer (with DHT, 20% without M17-B15) is 15%. For the same compound, the half-inhibitory concentration (IC50) (usually the concentration needed to halve the response being measured) against FL-AR^F876L/T877A stood at 0.15 µM. At AR LBD (1:1 binding model, read-out: equilibrium dissociation constant (KD)), the Kd – broadly, the free concentration of one partner at which half of the binding sites on the other are occupied at equilibrium, for simple one-to-one binding – came to 13.2 µM. In addition, the koff on AR LBD (read-out: Kd (dissociation rate)) was determined as 0.033 s⁻¹.
